Molecules are shown by their SMILES.

Data set [1] has as its system castrated male rats (levator ani, seminal vesicules, prostate). Nature of the data set: Anabolisant-androgenic activity, Hershberger technique slightly modified (castrated rats, oral). The class given is in vivo, rat. As to conditions: for Levator ani weight / Prostate weight / Seminal vesicules weight: oral, 10 days. As to the method: This test was effected using the technique of Hershberger [Proc. Soc. Exp. Biol. Med., Vol. 83 (1953), p. 175] slightly modified and groups of 5 male rats 19 to 21 days old were castrated and then were treated daily for 10 days by oral administration of the test product in a solution containing 0.5 ml of olive oil and 0.5 ml of water containing 0.25% of carboxymethylcellulose. The animals were killed 24 hours after the last treatment and the prostate and seminal vesicules were removed and fixed for 24 hours in a solution of 10% formol in physiological serum. They were then dissected and weighed and the levator ani was removed and weighed in a fresh state. The increase in the weight of the genital organs indicate the anabolisant-androgenic activity of 17β-n-amyloxy-Δ^4,9,11 -estratriene-3-one and the results are reported in Table I and compared to the results of other trienic steroids.

The subject of a further data set is hepatic cells. Description: Hepatonocivity study (rabbit, oral, 4 consecutive days). The class given is in vivo. As to the method: 17β-n-amyloxy-Δ^4,9,11 -estratriene-3-one was orally administered for 4 consecutive days to a rabbit at a dose of 10 mg/kg and the animal was killed on the 5th day. […] (BSP).
Setting [2] is: 10 mg/kg orally, 4 consecutive days.

As to `C=C(C)CO[C@H]1CC[C@H]2[C@@H]3CCC4=CC(=O)CCC4=C3C=C[C@]12C` [17β-(2'-methyl)allyloxy-Δ^4,9,11 estratriene 3-one], the Levator ani weight in data set [1] (daily dose 20 μg/rat) was 29.0 mg; in data set [1] (daily dose 100 μg/rat) it was 23.5 mg; in data set [1] (daily dose 500 μg/rat), 37.5 mg. For the same molecule, the Prostate weight is given as 34.1 mg in data set [1] (daily dose 20 μg/rat), 39.0 mg in data set [1] (daily dose 100 μg/rat) and 66.2 mg in data set [1] (daily dose 500 μg/rat). The Seminal vesicules weight in data set [1] (daily dose 20 μg/rat) was 17.0 mg; in data set [1] (daily dose 100 μg/rat) it was 16.7 mg; in data set [1] (daily dose 500 μg/rat) it was 52.3 mg.

In the case of `CC(C)=CCO[C@H]1CC[C@H]2[C@@H]3CCC4=CC(=O)CCC4=C3C=C[C@]12C` [17β-(3'-methyl)but-2'-enyloxy Δ^4,9,11-estratriene-3-one], in data set [1] (daily dose 10 μg/rat), the Levator ani weight was found to be 28.7 mg, the Prostate weight came to 12.8 mg and the Seminal vesicules weight came to 8.2 mg. Moreover, in data set [1] (daily dose 100 μg/rat), the Levator ani weight came out at 49.2 mg, the Prostate weight came to 39.0 mg and the Seminal vesicules weight turned out to be 36.7 mg.

In the case of `C[C@]12C=CC3=C4CCC(=O)C=C4CC[C@H]3[C@@H]1CC[C@@H]2OCC1CC1` [17β-(cyclopropyl)-methoxy-Δ^4,9,11-estratriene-3-one], the Levator ani weight was 20.7 mg in data set [1] (daily dose 10 μg/rat), 33.3 mg in data set [1] (daily dose 100 μg/rat) and 49.2 mg in data set [1] (daily dose 1000 μg/rat). The Prostate weight is given as 18.4 mg in data set [1] (daily dose 10 μg/rat), 41.7 mg in data set [1] (daily dose 100 μg/rat) and 88.7 mg in data set [1] (daily dose 1000 μg/rat). The figures for the Seminal vesicules weight in data set [1] (daily dose 10 μg/rat), in data set [1] (daily dose 100 μg/rat) and in data set [1] (daily dose 1000 μg/rat) were 9.9 mg, 26.4 mg and 97.1 mg, respectively.

As to `CC(C)CO[C@H]1CC[C@H]2[C@@H]3CCC4=CC(=O)CCC4=C3C=C[C@]12C` [17β-isobutyloxy-Δ^4,9,11-estratriene-3-one], in data set [1] (daily dose 10 μg/rat), the Levator ani weight was 24.6 mg, the Prostate weight is reported as 13.5 mg and the Seminal vesicules weight worked out at 9.2 mg. Moreover, in data set [1] (daily dose 100 μg/rat), the Levator ani weight was 41.9 mg, the Prostate weight was 46.4 mg and the Seminal vesicules weight came to 28.7 mg. In addition, in data set [1] (daily dose 1000 μg/rat), the Levator ani weight was 44.0 mg, the Prostate weight is on record as 104.8 mg and the Seminal vesicules weight was 116.0 mg.

With `CCCCCO[C@H]1CC[C@H]2[C@@H]3CCC4=CC(=O)CCC4=C3C=C[C@]12C` [17β-n-amyloxy-Δ^4,9,11-estratriene-3-one], the “anabolisant-androgenic activity compared to other Δ^4,9,11 -estratrienes” value in data set [1] (administered orally, rats) is recorded as “clearly much superior”. In data set [1] (daily dose 10 μg/rat), this molecule returned a Levator ani weight of 28.4 mg, a Prostate weight of 27.7 mg and a Seminal vesicules weight of 13.1 mg. In data set [1] (daily dose 30 μg/rat), this molecule had a Levator ani weight of 47.1 mg, a Prostate weight of 44.7 mg and a Seminal vesicules weight of 23.5 mg. In data set [1] (daily dose 90 μg/rat), the Levator ani weight amounted to 53.1 mg, the Prostate weight is reported as 79.0 mg and the Seminal vesicules weight was 64.0 mg. Besides, the “tolerance by the hepatic cells” value with hepatic cells (5 mg/kg) is listed as “well tolerated”. In the data set on hepatic cells (setting [2]), the “rate of oxalacetic transaminase (SGOT)” value is recorded as “increase” and the “rate of retention of bromosulfonephtalein (BSP)” value is reported as “without having caused a change”.

In the case of `CCCO[C@H]1CC[C@H]2[C@@H]3CCC4=CC(=O)CCC4=C3C=C[C@]12C` [17β-n-propyloxy-Δ^4,9,11-estratriene 3-one], in data set [1] (daily dose 100 μg/rat), the Levator ani weight was 25.3 mg, the Prostate weight worked out at 33.5 mg and the Seminal vesicules weight amounted to 14.9 mg. In data set [1] (daily dose 1000 μg/rat), this molecule displayed a Levator ani weight of 38.7 mg, a Prostate weight of 74.4 mg and a Seminal vesicules weight of 66.8 mg.

The values are drawn from US4105761A, “Anabolisant-androgenic compounds” (Roussel Uclaf, priority 1974, dated 1978).
